Values joined by “and” are separate entries in the source; they are usually repeats but may differ in a detail not shown here. Equal entries are not always repeated.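 Following 48 hours of exposure in 96-well plates, responses at five concentrations were used to interpolate endpoints linearly. Abbreviation: GI50, concentration required for 50% inhibition of growth. Definition used: TGI = concentration required for complete inhibition of growth.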
Legend:
Experiment in all cases: NCI-60 cell line screen, 48 h
UACC-62 melanoma = system: UACC-62 melanoma
LOX IMVI melanoma = system: LOX IMVI melanoma
OVCAR-3 ovarian = system: OVCAR-3 ovarian
EKVX NSCLC = system: EKVX NSCLC
U251 CNS = system: U251 CNS
HCT-15 colon = system: HCT-15 colon
NCI-H460 lung = system: NCI-H460 lung
HOP-18 NSCLC = system: HOP-18 NSCLC
CCRF-CEM leukemia = system: CCRF-CEM leukemia
SNB-19 CNS = system: SNB-19 CNS
MDA-N = system: MDA-N
HS 578T breast = system: HS 578T breast
BT-549 breast = system: BT-549 breast
SF-539 CNS = system: SF-539 CNS

SMILES | TGI (UACC-62 melanoma) [µM] | TGI (LOX IMVI melanoma) [µM] | TGI (OVCAR-3 ovarian) [µM] | TGI (EKVX NSCLC) | TGI (U251 CNS) [µM] | TGI (HCT-15 colon) [µM] | TGI (NCI-H460 lung) [µM] | TGI (HOP-18 NSCLC) [µM] | TGI (CCRF-CEM leukemia) [µM] | TGI (SNB-19 CNS) [µM] | TGI (MDA-N) [µM] | TGI (HS 578T breast) [µM] | TGI (BT-549 breast) [µM] | TGI (SF-539 CNS) | GI50 (UACC-62 melanoma) [µM] | GI50 (SF-539 CNS) [µM] | GI50 (EKVX NSCLC) [µM] | GI50 (HOP-18 NSCLC) [µM] | GI50 (CCRF-CEM leukemia) [µM] | GI50 (SNB-19 CNS) [µM]
Cc1ccc(-c2cc(-c3ccco3)c(C#N)c(=O)n2C2OC(CO)C(O)C(O)C2O)cc1 (stereo not drawn) | > 100 | > 100 | > 100 | > 100 µM | > 100 | > 100 | > 100 | > 100 | > 100 | > 100 | – | – | – | – | – | – | – | – | – | –
CCOC(=O)C(OP(=O)(OCC)OCC)C(F)(F)F (stereo not drawn) | > 100 | > 100 | > 100 | > 100 µM | > 100 | > 100 | > 100 | – | > 100 | > 100 | > 100 | > 100 | > 100 | > 100 µM | – | – | – | – | – | –
Cn1c(=O)c(Cl)c(N=[N+]=[N-])c2ccccc21 | > 100 | > 100 | > 100 | > 100 µM | > 100 | > 100 | > 100 | – | > 100 | > 100 | > 100 | > 100 | – | > 100 µM | – | – | – | – | – | –
O=[N+]([O-])C(=C/c1cccs1)/C(=C\c1cccs1)[N+](=O)[O-] | 2.53 | 0.688 | 21.7 | > 32.4 µM | – | 0.614 | 5.31 | – | 0.276 | 5.16 | 2.65 | 50.7 | 4.27 | 0.417 µM | – | – | – | – | – | –
O=C1c2ccccc2C(=O)N1CC(CN1C(=O)c2ccccc2C1=O)(C(=O)OCc1ccccc1)C(=O)OCc1ccccc1 | > 100 | – | > 100 | – | > 100 | > 100 | > 100 | – | > 100 | > 100 | > 100 | > 100 | > 100 | – | – | – | – | – | – | –
C=CCCCCCCCCC(=O)O | 190 | 259 | 176 | 255 µM | 242 | 192 | 191 | 226 | 292 | 362 | – | – | – | 212 µM | – | – | – | – | – | –
COc1cccc2c1C(=O)c1c(O)c3c(c(O)c1C2=O)C[C@@](O)(C(=O)CO)CC3OC1CC(NCCCC(OC(C)=O)OC(C)=O)C(O)C(C)O1 (stereo partly drawn) | – | 0.000743 | – | 0.00618 µM and 0.00119 µM | – | – | – | – | > 1 | – | – | – | – | 0.00445 µM and 0.00115 µM | < 0.0001 | < 0.0001 | 0.000305 | 0.00507 | 0.000104 | 0.000202
CCN1CCC(O)(c2ccc(O)cc2)C(C(=O)c2ccc(O)cc2)C1 (stereo not drawn) | 30.9 | 27.4 | 32.8 | 51.1 µM | > 100 | 32.1 | > 100 | – | 30 | > 100 | – | > 100 | – | – | – | – | – | – | – | –

From PubChem BioAssay (NCI)
